The target of the assay is T1, neuronal nicotinic acetylcholine receptors (Rattus norvegicus, UniProt P09483+P12390).
T1 construct: crude synaptic membrane preparations from whole rat brain; from tissue; host or cells: whole rat brain, crude synaptic membranes
Briefly: Binding of [3H]-cytisine to neuronal nicotinic acetylcholine receptors, crude synaptic membranes from whole rat brain. The method, then:
The In Vitro protocols for determination of nicotinic acetylcholine channel receptor binding potencies of ligands were determined as follows.
Washed membranes were stored at −80° C. prior to use. Frozen aliquots were slowly thawed and resuspended in 20 volumes of buffer (containing: 120 mM NaCl, 5 mM KCl, 2 mM MgCl2, 2 mM CaCl2 and 50 mM Tris-Cl, pH 7.4 @[…]). After centrifuging at 20,000×g for 15 minutes, the pellets were resuspended in 30 volumes of buffer.
The test compounds were dissolved in water to make 10 mM stock solutions. Each solution was then diluted (1:100) with buffer (as above) and further taken through seven serial log dilutions to produce test solutions from 10^−5 to 10^−11 M.
Samples were incubated for 60 minutes at 4° C., then rapidly filtered through Whatman GF/B filters presoaked in 0.5% polyethyleneimine using 3×4 mL of ice-cold buffer. The filters are counted in 4 mL of Ecolume® (ICN). Nonspecific binding was determined in the presence of 10 μM (−)-nicotine and values were expressed as a percentage of total binding. IC50 values were determined with the RS-1 (BBN) nonlinear least squares curve-fitting program and IC50 values were converted to Ki values using the Cheng and Prusoff correction (Ki=IC50/(1+[ligand]/Kd of ligand).

[1] abbreviates: [3H]-CYT 1.25 nM, whole rat brain membranes, 60 minutes at 4° C., IC50 converted to Ki by Cheng and Prusoff correction, read-out: Average Ki.

Structures can show the parent of a compound that is named as a salt. Where two headings read alike, the source gives them in different places.

T1 sequence (P09483 31-630): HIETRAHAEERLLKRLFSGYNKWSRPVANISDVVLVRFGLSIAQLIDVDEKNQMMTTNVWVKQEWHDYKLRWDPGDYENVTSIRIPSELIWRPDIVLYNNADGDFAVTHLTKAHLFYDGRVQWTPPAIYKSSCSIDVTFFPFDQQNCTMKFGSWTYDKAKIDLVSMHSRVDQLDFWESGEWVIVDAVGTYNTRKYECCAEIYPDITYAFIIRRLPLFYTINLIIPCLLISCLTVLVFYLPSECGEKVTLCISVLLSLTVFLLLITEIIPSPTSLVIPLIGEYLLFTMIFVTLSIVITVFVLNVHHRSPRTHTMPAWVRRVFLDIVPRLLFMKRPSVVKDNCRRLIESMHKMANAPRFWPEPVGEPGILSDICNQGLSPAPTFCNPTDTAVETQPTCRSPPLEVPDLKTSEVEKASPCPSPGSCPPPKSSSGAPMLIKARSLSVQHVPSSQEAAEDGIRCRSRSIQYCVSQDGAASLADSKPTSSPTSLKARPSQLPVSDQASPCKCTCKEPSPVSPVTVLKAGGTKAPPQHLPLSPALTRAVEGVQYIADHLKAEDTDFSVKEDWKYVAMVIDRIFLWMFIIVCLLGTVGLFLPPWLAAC
T1 sequence (P12390 25-500): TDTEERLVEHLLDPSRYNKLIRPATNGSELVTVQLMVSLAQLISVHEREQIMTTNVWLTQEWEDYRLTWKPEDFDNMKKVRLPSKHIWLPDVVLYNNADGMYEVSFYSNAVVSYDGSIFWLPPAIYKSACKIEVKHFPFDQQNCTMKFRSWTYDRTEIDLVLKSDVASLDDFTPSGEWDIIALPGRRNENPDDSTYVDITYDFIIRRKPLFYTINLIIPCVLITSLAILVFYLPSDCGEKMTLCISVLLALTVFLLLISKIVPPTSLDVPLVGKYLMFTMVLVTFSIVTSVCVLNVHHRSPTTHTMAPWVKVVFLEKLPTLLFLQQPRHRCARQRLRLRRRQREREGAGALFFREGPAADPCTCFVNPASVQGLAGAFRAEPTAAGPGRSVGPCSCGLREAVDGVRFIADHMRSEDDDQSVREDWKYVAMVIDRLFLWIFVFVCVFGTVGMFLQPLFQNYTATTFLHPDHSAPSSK

Compound `Clc1ccc(N2CC[C@@H]3CNC[C@@H]32)cn1` (relative stereo) [Example 16, cis-1-(6-chloro-3-pyridinyl)octahydropyrrolo[3,4-b]pyrrole hydrochloride] showed a Ki of 23 nM.

In the case of `CN1C[C@H]2CCN(c3ccc(Cl)nc3)[C@H]2C1` (relative stereo) [Example 17, cis-1-(6-chloro-3-pyridinyl)-5-methyloctahydropyrrolo[3,4-b]pyrrole hydrochloride], the Ki turned out to be 31 nM.

With `c1cncc(N2CC[C@@H]3CCN[C@@H]3C2)c1` (relative stereo) [Example 39, (cis)-6-(3-pyridinyl)octahydro-1H-pyrrolo[2,3-c]pyridine dihydrochloride], the inhibitory constant (Ki) was determined as 0.54 nM.

`Clc1ccc(N2CC[C@H]3CN[C@H]3C2)cn1` (relative stereo) [Example 42, (cis)-3-(6-chloro-3-pyridinyl)-3,8-diazabicyclo[4.2.0]octane bis(4-methylbenzenesulfonate)] displayed a Ki of 0.03 nM. The compound `Clc1ccc(N2C[C@H]3CNC[C@H]32)cn1` (relative stereo) [Example 46, (cis)-6-(6-chloro-3-pyridinyl)-3,6-diazabicyclo[3.2.0]heptane fumarate] showed a Ki of 0.73 nM. Same read-out and setting: then `CN1C[C@@H]2CN(c3ccc(Cl)nc3)C[C@@H]2C1` [Example 4, cis-2-(6-chloro-3-pyridinyl)-5-methyloctahydropyrrolo[3,4-c]pyrrole dihydrochloride], with 36 nM; and `Oc1cncc(N2C[C@H]3CNC[C@H]3C2)c1` [Example 6, cis-2-(5-hydroxy-3-pyridinyl)octahydropyrrolo[3,4-c]pyrrole dihydrochloride], with 0.75 nM. For the compound `c1cncc(N2CC[C@H]3NC[C@H]32)c1` [Example 18, (1R,5R)-2-(3-pyridinyl)-2,6-diazabicyclo[3.2.0]heptane bis(4-methylbenzenesulfonate)], the Ki under setting [1] came out at 154 nM. In turn, `Clc1ccc(N2C[C@H]3NCC[C@H]32)cn1` [Example 19, (1R,5R)-6-(6-chloro-3-pyridinyl)-2,6-diazabicyclo[3.2.0]heptane bis(4-methylbenzenesulfonate)] registered a Ki of 576 nM.

Consider `c1cncc(N2C[C@H]3NCC[C@H]32)c1` [Example 20, (1R,5R)-6-(3-pyridinyl)-2,6-diazabicyclo[3.2.0]heptane bis(4-methylbenzenesulfonate)], for which the Ki under setting [1] amounted to 122 nM. In the case of `Clc1cc(N2C[C@@H]3CCN[C@@H]3C2)cnc1Cl` [Example 25, (3aS,6aS)-5-(5,6-dichloro-3-pyridinyl)octahydropyrrolo[3,4-b]pyrrole hydrochloride], the affinity, expressed as Ki, was 1.4 nM. For the compound `c1cncc(N2C[C@@H]3CCN[C@@H]3C2)c1` [Example 30, (3aS,6aS)-5-(3-pyridinyl)octahydropyrrolo[3,4-b]pyrrole 4-methylbenzenesulfonate], the Ki under setting [1] is 2.9 nM.

As for `Brc1cncc(N2C[C@@H]3CCN[C@@H]3C2)c1` [Example 31, (3aS,6aS)-5-(5-bromo-3-pyridinyl)octahydropyrrolo[3,4-b]pyrrole 4-methylbenzenesulfonate], the Ki came to 14 nM. As to `COc1cncc(N2C[C@@H]3CCN[C@@H]3C2)c1` [Example 32, (3aS,6aS)-5-(5-methoxy-3-pyridinyl)octahydropyrrolo[3,4-b]pyrrole 4-methylbenzenesulfonate], the Ki was 5.3 nM. Still for that read-out and setting: then `Clc1ccc(N2CC[C@H]3CN[C@H]3C2)cn1` [Example 49, (1R,6S)-3-(6-chloro-3-pyridinyl)-3,8-diazabicyclo[4.2.0]octane fumarate], with 0.02 nM; and `Clc1ccc(N2C[C@H]3CNC[C@H]32)cn1` [Example 57, (1R,5S)-6-(6-chloro-3-pyridinyl)-3,6-diazabicyclo[3.2.0]heptane fumarate], with 1.2 nM. Same read-out and setting: then `Clc1cc(N2C[C@H]3CCN[C@H]3C2)cnc1Br` [Example 59, (3aR,6aR)-5-(6-bromo-5-chloro-3-pyridinyl)octahydropyrrolo[3,4-b]pyrrole fumarate], with 0.35 nM. Same read-out and setting: then `N#Cc1cncc(N2C[C@H]3CCNC[C@H]32)c1` [Example 61, 5-[(1S,6R)-3,8-diazabicyclo[4.2.0]oct-8-yl]nicotinonitrile fumarate], with 2.5 nM; and `N#CCc1cc(N2C[C@H]3CCN[C@H]3C2)cnc1Br` [Example 66, [5-((3aR,6aR)-hexahydropyrrolo[3,4-b]pyrrol-5(1H)-yl)-2-bromo-3-pyridinyl]acetonitrile fumarate], with 0.26 nM; and `Clc1ccc(N2CC[C@@H]3CNC[C@@H]32)cn1` [Example 73, (3aR,6aR)-1-(6-chloro-3-pyridinyl)octahydropyrrolo[3,4-b]pyrrole fumarate], with 24 nM. With `c1cncc(N2CC[C@@H]3CNC[C@@H]32)c1` [Example 75, (3aR,6aR)-1-(3-pyridinyl)octahydropyrrolo[3,4-b]pyrrole fumarate], the affinity corresponds to a Ki of 6.9 nM.

The compound `Clc1ccc(N2CC[C@H]3CNC[C@H]32)cn1` [Example 77, (3aS,6aS)-1-(6-chloro-3-pyridinyl)octahydropyrrolo[3,4-b]pyrrole fumarate] came in with a Ki of 19 nM. Same read-out and setting: the figure for `c1cncc(N2CC[C@H]3CNC[C@H]32)c1` [Example 78, (3aS,6aS)-1-(3-pyridinyl)octahydropyrrolo[3,4-b]pyrrole dihydrochloride] is 25 nM; for `N#Cc1cncc(N2C[C@H]3CN[C@H]3C2)c1` [Example 79, 5-[(1R,5R)-3,6-diazabicyclo[3.2.0]hept-3-yl]nicotinonitrile fumarate] it is 0.12 nM. Same read-out and setting: the figure for `Clc1ccc(N2C[C@H]3CN[C@H]3C2)cn1` [Example 80, (1R,5R)-3-(6-chloro-3-pyridinyl)-3,6-diazabicyclo[3.2.0]heptane fumarate] is 0.17 nM; for `N#Cc1cncc(N2CC[C@@H]3CNC[C@@H]32)c1` [Example 81, 5-((3aR,6aR)-hexahydropyrrolo[3,4-b]pyrrol-1(2H)-yl)nicotinonitrile] it is 11 nM. In the case of `Oc1cncc(N2CC[C@H]3CNC[C@H]32)c1` [Example 82, (3aS,6aS)-1-(5-hydroxy-3-pyridinyl)octahydropyrrolo[3,4-b]pyrrole dihydrochloride], the Ki under setting [1] turned out to be 363 nM. On to `N#Cc1cncc(N2CC[C@H]3CNC[C@H]32)c1` [Example 83, 5-((3aS,6aS)-hexahydropyrrolo[3,4-b]pyrrol-1(2H)-yl)nicotinonitrile fumarate], for which the affinity, expressed as Ki, was 97 nM. With `COc1cncc(N2C[C@H]3CCNC[C@H]32)c1` [Example 88, (1S,6R)-8-(5-methoxy-3-pyridinyl)-3,8-diazabicyclo[4.2.0]octane fumarate], the Ki under setting [1] was 0.56 nM.

As to `Cc1cc(N2C[C@H]3CCNC[C@H]32)cnc1Cl` [Example 89, (1S,6R)-8-(6-chloro-5-methyl-3-pyridinyl)-3,8-diazabicyclo[4.2.0]octane fumarate], under setting [1], the Ki was determined as 0.24 nM. Turning to `Cc1cc(N2C[C@@H]3CCNC[C@@H]32)cnc1Cl` [Example 90, (1R,6S)-8-(6-chloro-5-methyl-3-pyridinyl)-3,8-diazabicyclo[4.2.0]octane fumarate], the Ki came to 0.04 nM. On to `c1cncc(N2C[C@H]3CCNC[C@H]32)c1` [Example 91, (1S,6R)-8-(3-pyridinyl)-3,8-diazabicyclo[4.2.0]octane 4-methylbenzenesulfonate], for which the inhibition constant Ki under setting [1] worked out at 1.1 nM. Still for that read-out and setting: then `c1cncc(N2C[C@@H]3CCNC[C@@H]32)c1` [Example 92, (1R,6S)-8-(3-pyridinyl)-3,8-diazabicyclo[4.2.0]octane 4-methylbenzenesulfonate], with 0.12 nM; and `Clc1cc(N2C[C@H]3CCNC[C@H]32)cnc1Cl` [Example 93, (1S,6R)-8-(5,6-dichloro-3-pyridinyl)-3,8-diazabicyclo[4.2.0]octane 4-methylbenzenesulfonate], with 0.3 nM.

Take `Clc1cc(N2C[C@@H]3CCNC[C@@H]32)cnc1Cl` [Example 94, (1R,6S)-8-(5,6-dichloro-3-pyridinyl)-3,8-diazabicyclo[4.2.0]octane 4-methylbenzenesulfonate]: under setting [1], the Ki stood at 0.12 nM. The compound `COc1cc(N2C[C@H]3CNC[C@H]32)cnc1Br` [Example 95, (1R,5S)-6-(6-bromo-5-methoxy-3-pyridinyl)-3,6-diazabicyclo[3.2.0]heptane 4-methylbenzenesulfonate] displayed a Ki of 0.12 nM. On the same count and under the same terms, then `[N-]=[N+]=Nc1cncc(N2C[C@H]3CNC[C@H]32)c1` [Example 96, (1R,5S)-6-(5-azido-3-pyridinyl)-3,6-diazabicyclo[3.2.0]heptane fumarate], with 1.9 nM.

The record behind these values is patent US8119635B2, “Diazabicyclic central nervous system active agents” (Abbott Laboratories, priority 2000, dated 2012).
